Columns and labels:
Assay in all cases: relative viability (nuclei count vs DMSO), 5 days (fraction); higher = more cells survive
[1] = compound: COc1cc(-c2nn([C@H]3CC[C@H](N4CCN(C(C)=O)CC4)CC3)c3ncnc(N)c23)ccc1NC(=O)c1cc2ccccc2n1C + CS(=O)(=O)N1CCN(Cc2cc3nc(-c4cccc5[nH]ncc45)nc(N4CCOCC4)c3s2)CC1 [Pictilisib] (partner 1 µM)
Method in brief: (§1)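 Lung cancer cell lines in 1536-well plates got either a single drug or a fixed anchor-drug dose together with five library-drug doses (not always all listed) in √10 steps, by pin tool, on the day after seeding. Nuclei were counted after 5 days, and relative viability is the treated-to-vehicle ratio of nuclei counts. Values are medians of duplicate plates.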

[2] = compound: COc1cc(-c2nn([C@H]3CC[C@H](N4CCN(C(C)=O)CC4)CC3)c3ncnc(N)c23)ccc1NC(=O)c1cc2ccccc2n1C + CS(=O)(=O)CCNCc1ccc(-c2ccc3ncnc(Nc4ccc(OCc5cccc(F)c5)c(Cl)c4)c3c2)o1 [Lapatinib] (partner 2 µM)
Method in brief: as §1

Midostaurin + Pemetrexed = compound: CO[C@@H]1[C@H](N(C)C(=O)c2ccccc2)C[C@H]2O[C@]1(C)n1c3ccccc3c3c4c(c5c6ccccc6n2c5c31)C(=O)NC4 [Midostaurin] + Nc1nc2[nH]cc(CCc3ccc(C(=O)N[C@@H](CCC(=O)O)C(=O)O)cc3)c2c(=O)[nH]1 [Pemetrexed] (partner 0.2 µM)
Method in brief: as §1

Midostaurin + Olaparib = compound: CO[C@@H]1[C@H](N(C)C(=O)c2ccccc2)C[C@H]2O[C@]1(C)n1c3ccccc3c3c4c(c5c6ccccc6n2c5c31)C(=O)NC4 [Midostaurin] + O=C(c1cc(Cc2n[nH]c(=O)c3ccccc23)ccc1F)N1CCN(C(=O)C2CC2)CC1 [Olaparib] (partner 8 µM)
Method in brief: as §1

[3] = compound: COc1cc(-c2nn([C@H]3CC[C@H](N4CCN(C(C)=O)CC4)CC3)c3ncnc(N)c23)ccc1NC(=O)c1cc2ccccc2n1C + CC(C)C[C@H](NC(=O)[C@H](Cc1ccccc1)NC(=O)c1cnccn1)B(O)O [Bortezomib] (partner 0.002 µM)
Method in brief: as §1

| Cell Line | relative viability ([1]; first compound 0.0128 µM) | relative viability ([1]; first compound 0.04048 µM) | relative viability ([1]; first compound 0.128 µM) | relative viability ([1]; first compound 1.28 µM) | relative viability ([2]; first compound 0.0128 µM) | relative viability ([2]; first compound 0.04048 µM) | relative viability ([2]; first compound 0.128 µM) | relative viability ([2]; first compound 1.28 µM) | relative viability (Midostaurin + Pemetrexed; first compound 0.01 µM) | relative viability (Midostaurin + Pemetrexed; first compound 0.03162 µM) | relative viability (Midostaurin + Pemetrexed; first compound 0.1 µM) | relative viability (Midostaurin + Pemetrexed; first compound 0.3162 µM) | relative viability (Midostaurin + Olaparib; first compound 0.01 µM) | relative viability (Midostaurin + Olaparib; first compound 0.03162 µM) | relative viability (Midostaurin + Olaparib; first compound 0.1 µM) | relative viability (Midostaurin + Olaparib; first compound 0.3162 µM) | relative viability ([3]; first compound 0.0128 µM) | relative viability ([3]; first compound 0.04048 µM) | relative viability ([3]; first compound 0.128 µM) | relative viability ([3]; first compound 1.28 µM) |
| --- | --- | --- | --- | --- | --- | --- | --- | --- | --- | --- | --- | --- | --- | --- | --- | --- | --- | --- | --- | --- |
| H3255 | 0.523 | 0.408 | 0.49 | 0.278 | 0.294 | 0.27 | 0.238 | 0.176 | 0.571 | 0.494 | 0.529 | 0.579 | 0.515 | 0.538 | 0.498 | 0.533 | 0.92 | 0.765 | 0.721 | 0.779 |
| IA-LM | 0.345 | 0.443 | 0.324 | 0.334 | 0.83 | 1.16 | 0.79 | 1.15 |  |  |  |  | 0.746 | 0.653 | 0.748 | 0.881 | 0.847 | 1.07 | 0.896 | 0.631 |
| LCLC-103H | 0.656 | 0.691 | 0.571 | 0.49 |  |  |  |  | 0.464 | 0.53 | 0.452 | 0.467 | 0.746 | 0.813 | 0.717 | 0.805 | 1.16 | 1.13 | 1.15 | 0.99 |
| LK-2 | 0.557 | 0.543 | 0.55 | 0.375 | 1.09 | 0.981 | 0.83 | 0.777 | 0.265 | 0.262 | 0.299 | 0.342 | 0.686 | 0.612 | 0.878 | 0.791 |  |  |  |  |
| NCI-H358 | 0.395 | 0.331 | 0.277 | 0.249 | 0.455 | 0.391 | 0.335 | 0.27 | 0.158 | 0.167 | 0.173 | 0.159 | 0.511 | 0.48 | 0.531 | 0.575 |  |  |  |  |
| NCI-H441 | 0.551 | 0.43 | 0.602 | 0.421 |  |  |  |  | 0.304 | 0.259 | 0.222 | 0.254 | 0.475 | 0.677 | 0.458 | 0.427 | 0.591 | 0.823 | 0.665 | 0.616 |
| NCI-H522 |  |  |  |  |  |  |  |  | 1.19 | 1.14 | 0.941 | 1.24 | 0.546 | 0.748 | 0.578 | 0.682 |  |  |  |  |
| NCI-H727 | 0.355 |  | 0.401 | 0.301 | 0.804 |  | 0.754 | 0.718 |  |  |  |  | 0.659 | 0.62 | 0.628 | 0.68 | 0.834 |  | 0.808 | 1.06 |
| NCI-H1299 | 0.681 | 0.806 | 0.668 | 0.385 | 0.997 | 1.11 | 0.984 | 1.04 |  |  |  |  | 0.919 | 0.942 | 0.985 | 0.924 | 1.02 | 1.14 | 1.06 | 1.22 |
| NCI-H1395 | 0.578 | 0.711 | 0.512 | 0.486 | 0.939 | 1.09 | 0.881 | 0.782 | 0.791 | 1.09 | 0.748 | 0.846 | 0.44 | 0.468 | 0.454 | 0.465 |  |  |  |  |
| NCI-H1563 | 0.682 | 0.641 | 0.656 | 0.606 | 1.01 | 0.961 | 0.822 | 0.681 | 0.681 | 0.748 | 0.749 | 0.809 |  |  |  |  | 0.916 | 0.882 | 0.824 | 0.664 |
| NCI-H1648 |  |  |  |  |  |  |  |  | 0.671 |  |  | 0.823 | 1.08 |  |  | 0.767 |  |  |  |  |
| NCI-H1703 | 0.235 | 0.26 | 0.222 | 0.163 | 1.09 | 0.988 | 0.842 | 0.352 |  |  |  |  | 0.507 | 0.421 | 0.298 | 0.216 | 0.286 | 0.45 | 0.298 | 0.235 |
| NCI-H1793 | 0.424 | 0.288 | 0.285 | 0.311 | 1.01 | 0.501 | 0.434 | 0.621 | 0.926 | 1.01 | 0.782 | 0.673 | 0.923 | 0.804 | 0.644 | 0.431 |  |  |  |  |
| NCI-H1944 | 0.362 | 0.301 | 0.327 | 0.285 | 0.944 | 0.95 | 0.777 | 0.69 | 0.61 | 0.579 | 0.566 | 0.642 | 0.388 | 0.433 | 0.402 | 0.429 |  |  |  |  |
| NCI-H2170 | 0.297 | 0.353 | 0.334 | 0.248 | 0.253 | 0.283 | 0.243 | 0.249 | 0.297 | 0.268 | 0.265 | 0.266 | 0.569 | 0.569 | 0.551 | 0.54 |  |  |  |  |
| NCI-H2342 |  |  |  |  |  |  |  |  | 0.785 | 0.72 | 0.794 | 0.73 | 0.419 | 0.394 | 0.422 | 0.489 |  |  |  |  |
| SK-MES-1 | 0.343 | 0.402 | 0.361 | 0.221 | 0.397 | 0.561 | 0.443 | 0.451 | 0.856 | 0.826 | 0.885 | 0.854 | 0.634 | 0.595 | 0.66 | 0.473 |  |  |  |  |
| SW 900 |  |  |  |  |  |  |  |  | 0.468 | 0.477 | 0.488 | 0.478 | 0.826 | 1.08 | 0.852 | 0.575 |  |  |  |  |
